Assay results published in patent US8859574B2 (IRM LLC, priority 2008, dated 2014).

Biological target: T1, IGF-1R Ba/F3 (Homo sapiens, UniProt P08069)
T1 construct: fused on or other part: TEL- (or BCR-) IGF-1R in Ba/F3: the kinase part holds the site
Test: Ba/F3 Cell Viability Inhibition Assay (IGF-1R Ba/F3)
Assay type: cell-based, murine
Settings: Tel-TK transformed Ba/F3 cells, 48 hours, Britelite luminescence
How it was run: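 IL-3-independent murine Ba/F3 cells transformed with a TEL/BCR-fused IGF-1R kinase were seeded at 3750 cells/well and exposed to serially diluted compound for 48 h at 37 °C. Viability was read by Britelite luminescence. IC50 is the concentration giving 50% of DMSO-control viability, from a logistic fit.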

T1 sequence (P08069 999-1274 limits assumed): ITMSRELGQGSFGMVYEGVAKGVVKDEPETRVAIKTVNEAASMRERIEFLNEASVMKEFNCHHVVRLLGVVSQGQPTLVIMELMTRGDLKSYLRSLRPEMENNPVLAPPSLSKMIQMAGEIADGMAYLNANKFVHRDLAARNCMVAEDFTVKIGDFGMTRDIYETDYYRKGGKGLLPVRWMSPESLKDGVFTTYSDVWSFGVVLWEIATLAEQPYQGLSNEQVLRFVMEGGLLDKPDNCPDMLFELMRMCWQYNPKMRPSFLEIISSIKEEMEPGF

Row | Structure (SMILES) | IC50
1 | Cc1cc(Nc2nc(Nc3cc(C)c(C4CCNCC4)cc3C)ncc2C)n[nH]1 [Compound 178, N2-(2,5-dimethyl-4-(piperidin-4-yl)phenyl)-5-methyl-N4-(5-methyl-1H-pyrazol-3-yl)pyrimidine-2,4-diamine] | 3230 nM
2 | Cc1cc(Nc2nc(Nc3cc(Cl)c(C4CCN(CCS(=O)(=O)N5CCC5)CC4)cc3C)ncc2Cl)n[nH]1 [Compound 60, N2-(4-(1-(2-(azetidin-1-ylsulfonyl)ethyl)piperidin-4-yl)-5-chloro-2-methylphenyl)-5-chloro-N4-(5-methyl-1H-pyrazol-3-yl)pyrimidine-2,4-diamine] | 11 nM
3 | Cc1cc(Nc2nc(Nc3cc(C)c(C4CCN(C(C)C(N)=O)CC4)cc3F)ncc2C(F)(F)F)n[nH]1 (centres unmarked) [Compound 53, 2-(4-(5-fluoro-2-methyl-4-(4-(5-methyl-1H-pyrazol-3-ylamino)-5-(trifluoromethyl)pyrimidin-2-ylamino)phenyl)piperidin-1-yl)propanamide] | 78 nM
4 | Cc1cc(Nc2ncc(Cl)c(Nc3cc(C4CC4)[nH]n3)n2)c(F)cc1C1CCN(C2CC2)CC1 [Compound 255, 5-chloro-N4-(5-cyclopropyl-1H-pyrazol-3-yl)-N2-(4-(1-cyclopropylpiperidin-4-yl)-2-fluoro-5-methylphenyl)pyrimidine-2,4-diamine] | 228 nM
5 | Cc1cc(Nc2nc(Nc3cc(C)c(C4CCN(S(C)(=O)=O)CC4)cc3F)ncc2Cl)n[nH]1 [Compound 62, 5-Chloro-N2-(2-fluoro-5-methyl-4-(1-(methylsulfonyl)piperidin-4-yl)phenyl)-N4-(5-methyl-1H-pyrazol-3-yl)pyrimidine-2,4-diamine] | 5 nM
6 | CCc1cnc(N2CCC(c3cc(F)c(Nc4ncc(Cl)c(Nc5cc(C)[nH]n5)n4)cc3C)CC2)nc1 [Compound 149, 5-Chloro-N2-(4-(1-(5-ethylpyrimidin-2-yl)piperidin-4-yl)-2-fluoro-5-methylphenyl)-N4-(5-methyl-1H-pyrazol-3-yl)pyrimidine-2,4-diamine] | 955 nM
7 | Cc1cc(Nc2nc(Nc3cc(C)c(C4CCN(Cc5ccccn5)CC4)cc3F)ncc2Cl)n[nH]1 [Compound 281, 5-chloro-N2-(2-fluoro-5-methyl-4-(1-(pyridin-2-ylmethyl)piperidin-4-yl)phenyl)-N4-(5-methyl-1H-pyrazol-3-yl)pyrimidine-2,4-diamine] | 87 nM
8 | Cc1cc(Nc2nc(Nc3cc(C)c(C4CCCCN4Cc4c(C)noc4C)cc3C)ncc2Cl)n[nH]1 (centres unmarked) [Compound 191, 5-chloro-N2-(4-(1-((3,5-dimethylisoxazol-4-yl)methyl)piperidin-2-yl)-2,5-dimethylphenyl)-N4-(5-methyl-1H-pyrazol-3-yl)pyrimidine-2,4-diamine] | 113 nM
9 | Cc1cc(Nc2nc(Nc3cc(C)c(C4CCN(C(C)C(N)=O)CC4)cc3C)ncc2Cl)n[nH]1 (centres unmarked) [Compound 51, 2-(4-(4-(5-chloro-4-(5-methyl-1H-pyrazol-3-ylamino)pyrimidin-2-ylamino)-2,5-dimethylphenyl)piperidin-1-yl)propanamide] | 9 nM
10 | Cc1cc(Nc2nc(Nc3cc(C)c(C4CCN(C5CCC(=O)CC5)CC4)cc3F)ncc2Cl)n[nH]1 [Compound 290, 4-(4-(4-(5-chloro-4-(5-methyl-1H-pyrazol-3-ylamino)pyrimidin-2-ylamino)-5-fluoro-2-methylphenyl)piperidin-1-yl)cyclohexanone] | 23 nM
11 | CC(=O)N1CCC(C(=O)N2CCC(c3cc(F)c(Nc4ncc(Cl)c(Nc5cc(C)[nH]n5)n4)cc3C)CC2)CC1 [Compound 114] | 48 nM
12 | Cc1cc(Nc2nc(Nc3cc(C)c(C4CCN(CCO)CC4)cc3F)ncc2Cl)n[nH]1 [Compound 22, 2-(4-(4-(5-chloro-4-(5-methyl-1H-pyrazol-3-ylamino)pyrimidin-2-ylamino)-5-fluoro-2-methylphenyl)piperidin-1-yl)ethanol] | 59 nM
13 | Cc1cc(Nc2nc(Nc3cc(C)c(C4CCN(C(=O)c5ocnc5C)CC4)cc3F)ncc2Cl)n[nH]1 [Compound 136, (4-(4-(5-chloro-4-(5-methyl-1H-pyrazol-3-ylamino)pyrimidin-2-ylamino)-5-fluoro-2-methylphenyl)piperidin-1-yl)(4-methyloxazol-5-yl)methanone] | 35 nM
14 | Cc1cc(Nc2nc(Nc3cc(C)c([C@H]4COC(=O)N4)cc3C)ncc2Cl)n[nH]1 [Compound 230, (S)-4-(4-(5-chloro-4-(5-methyl-1H-pyrazol-3-ylamino)pyrimidin-2-ylamino)-2,5-dimethylphenyl)oxazolidin-2-one] | 40 nM
15 | Cc1cc(Nc2nc(Nc3cc(C)c(C4CCN(Cc5ccnnc5)CC4)cc3C)ncc2Cl)n[nH]1 [Compound 21, 5-chloro-N2-(2,5-dimethyl-4-(1-(pyridazin-4-ylmethyl)piperidin-4-yl)phenyl)-N4-(5-methyl-1H-pyrazol-3-yl)pyrimidine-2,4-diamine] | 2 nM
16 | Cc1cc(Nc2nc(Nc3cc(C)c(C4CCN(Cc5cncnc5)CC4)cc3C)ncc2Cl)n[nH]1 [Compound 317, 5-chloro-N2-(2,5-dimethyl-4-(1-(pyrimidin-5-ylmethyl)piperidin-4-yl)phenyl)-N4-(5-methyl-1H-pyrazol-3-yl)pyrimidine-2,4-diamine] | 4 nM
17 | Cc1cc(Nc2nc(Nc3cc(C)c(C4CCN(C(=O)CCN5CCCC5)CC4)cc3C)ncc2Cl)n[nH]1 [Compound 226, 1-(4-(4-(5-chloro-4-(5-methyl-1H-pyrazol-3-ylamino)pyrimidin-2-ylamino)-2,5-dimethylphenyl)piperidin-1-yl)-3-(pyrrolidin-1-yl)propan-1-one] | 61 nM
18 | Cc1cc(Nc2nc(Nc3cc(C)c(C4CCN(C(=O)[C@@H]5CCN5)CC4)cc3F)ncc2Cl)n[nH]1 [Compound 132, (S)-azetidin-2-yl(4-(4-(5-chloro-4-(5-methyl-1H-pyrazol-3-ylamino)pyrimidin-2-ylamino)-5-fluoro-2-methylphenyl)piperidin-1-yl)methanone] | 161 nM
19 | Cc1cc(Nc2nc(Nc3cc(C)c([C@H]4CCN[C@H](C)C4)cc3F)ncc2Cl)n[nH]1 (relative stereo) [Compound 279, 5-chloro-N2-(2-fluoro-5-methyl-4-((trans)-2-methylpiperidin-4-yl)phenyl)-N4-(5-methyl-1H-pyrazol-3-yl)pyrimidine-2,4-diamine] | 64 nM
20 | Cc1cc(Nc2nc(Nc3cc(C)c(C4CCN(C5CCS(=O)(=O)CC5)CC4)cc3C)ncc2Cl)n[nH]1 [Compound 146] | 258 nM
21 | Cc1cc(C2CCNCC2)c(C)cc1Nc1ncc(Cl)c(Nc2cc(C(F)(F)F)[nH]n2)n1 [Compound 215, 5-chloro-N2-(2,5-dimethyl-4-(piperidin-4-yl)phenyl)-N4-(5-(trifluoromethyl)-1H-pyrazol-3-yl)pyrimidine-2,4-diamine] | 47 nM
22 | CCN1CCC(c2cc(C)c(Nc3ncc(Cl)c(Nc4cc(C)[nH]n4)n3)cc2C)CC1 [Compound 211, 5-chloro-N2-(4-(1-ethylpiperidin-4-yl)-2,5-dimethylphenyl)-N4-(5-methyl-1H-pyrazol-3-yl)pyrimidine-2,4-diamine] | 9 nM
23 | Cc1cc(Nc2nc(Nc3cc(C)c(C4CCN(CCC(=O)N5CCCC5)CC4)cc3C)ncc2Cl)n[nH]1 [Compound 238, 3-(4-(4-(5-chloro-4-(5-methyl-1H-pyrazol-3-ylamino)pyrimidin-2-ylamino)-2,5-dimethylphenyl)piperidin-1-yl)-1-(pyrrolidin-1-yl)propan-1-one] | 39 nM
